These results are taken from ChEMBL document CHEMBL5096210, “Discovery of Betulinic Acid Derivatives as Potent Intestinal Farnesoid X Receptor Antagonists to Ameliorate Nonalcoholic Steatohepatitis” (J Med Chem, 2022).

Series [1] deals with Mus musculus. In words: Anti-NASH activity in HFMCD diet-induced […] mouse assessed as reduction in hepatic hydroxyproline level at 30 mg/kg, po for 4 weeks. It is filed as functional, organism-based.
Series [2] is filed under the species Mus musculus. In words: Anti-NASH activity in GAN diet-induced […] mouse assessed as downregulation of P-ycard level. It is filed as functional, organism-based.
The subject of series [3] is Mus musculus. The series can be described thus: Anti-NASH activity in GAN-induced […] mouse assessed as upregulation of […] expression in inguinal white adipose tissue at 10 mg/kg. The series is classed as functional, organism-based.
Series [4] is filed under the species Mus musculus. The series can be described thus: Anti-NASH activity in GAN diet-induced […] mouse assessed as reduction in A-sma mRNA expression. The series is classed as functional, organism-based.
For series [5], the species on record is Mus musculus. In words: Anti-NASH activity in GAN diet-induced […] mouse assessed as reduction in cleaved caspase 1 level. It is filed as functional, organism-based.
The species named for series [6] is Mus musculus. The series can be described thus: Anti-NASH activity in GAN diet-induced […] mouse assessed as increase in Bsep mRNA level. It is filed as functional, organism-based.
For series [7], the system named is Mus musculus. The series can be described thus: Anti-NASH activity in HFMCD diet-induced […] mouse assessed as reduction in AST serum level at 30 mg/kg, po for 4 weeks. It is filed as functional, organism-based.
Series [8] deals with Liver. The series can be described thus: Anti-NASH activity in GAN diet-induced […] mouse liver assessed as reduction in hepatocyte fat by Oil Red O staining based assay. It is filed as functional, cell-based.
For series [9], the species on record is Mus musculus. In words: Anti-NASH activity in GAN diet-induced […] mouse assessed as upregulation of Ppara mRNA expression level. It is filed as functional, organism-based.
Series [10] is filed under the species Mus musculus. In words: Anti-NASH activity in GAN diet-induced […] mouse assessed as reduction in Cd36 mRNA expression level. It is filed as functional, organism-based.
Series [11] has as its target T1, Bile acid receptor (Mus musculus) (UniProt Q60641).
T1 sequence (whole entry): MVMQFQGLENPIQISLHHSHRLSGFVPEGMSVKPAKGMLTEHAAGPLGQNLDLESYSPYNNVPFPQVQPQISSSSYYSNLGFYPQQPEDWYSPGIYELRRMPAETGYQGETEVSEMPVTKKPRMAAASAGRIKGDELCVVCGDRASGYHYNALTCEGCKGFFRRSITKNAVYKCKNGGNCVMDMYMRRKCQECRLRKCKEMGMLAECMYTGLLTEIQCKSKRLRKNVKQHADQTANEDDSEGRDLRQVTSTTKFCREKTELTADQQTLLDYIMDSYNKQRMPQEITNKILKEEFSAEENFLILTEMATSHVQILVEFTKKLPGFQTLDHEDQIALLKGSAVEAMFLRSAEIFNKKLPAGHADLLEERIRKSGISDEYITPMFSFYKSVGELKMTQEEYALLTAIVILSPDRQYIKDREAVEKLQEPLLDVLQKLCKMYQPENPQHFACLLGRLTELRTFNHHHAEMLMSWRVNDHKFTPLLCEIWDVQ
In words: In vivo antagonist activity against FXR in microbeta depleted mouse assessed as reduction in taurocholic acid induced Fgf15 mRNA expression in ileum at 10 mg/kg, po incubated for 2 to 48 hrs. The note with it: time 2-48 hrs. The series is classed as functional, organism-based.

Series [12] in a line: Drug metabolism in C57BL6 mouse Gall bladder assessed as ((1S,3aS,5aR,5bR,7aR,9R,11aR,11bR,13aR,13bR)-9-hydroxy-1-isopropyl-5a,5b,8,8,11a-pentamethylicosahydro-1H-cyclopenta[a]chrysene-3a-carbonyl)glycine formation at 10 mg/kg, po administered as single dose measured after 2 hrs. It is filed as ADME, organism-based. Particulars: in vivo.
Series [13] is filed under the species Mus musculus. The series can be described thus: Anti-NASH activity in GAN diet-induced […] mouse assessed as reduction in hepatic triglycerides level. It is filed as functional, organism-based.
Series [14] has as its target T1, Bile acid receptor (Mus musculus). The series can be described thus: In vivo antagonist activity against FXR in microbeta depleted mouse assessed as reduction in taurocholic acid induced Shp mRNA expression in ileum at 10 mg/kg, po incubated for 2 to 48 hrs. It is filed as functional, organism-based. The note with it: time 2-48 hrs.
In series [15] the test system is Mus musculus. The series can be described thus: Anti-NASH activity in GAN-induced […] mouse assessed as reduction in body weight at 10 mg/kg, IG measured after 12 weeks. The series is classed as functional, organism-based.
In series [16] the target is T1, Bile acid receptor (Mus musculus). The series can be described thus: In vivo antagonist activity against FXR in mouse assessed as reduction in Shp level in presence of GW4064. It is filed as functional.
The test system of series [17] is Liver. In words: Anti-NASH activity in GAN diet-induced […] mouse liver assessed as reduced NAFLD activity score. It is filed as functional.
For series [18], the system named is Liver. The series can be described thus: Anti-NASH activity in GAN diet-induced […] mouse liver assessed as reduction in macrosteatosis by H and E staining based analysis. It is filed as functional.
Series [19] is filed under the species Mus musculus. The series can be described thus: Anti-NASH activity in GAN diet-induced […] mouse assessed as increase in FXR protein by Western blot analysis. It is filed as functional, organism-based.
Series [20] is filed under the species Mus musculus. The series can be described thus: Anti-NASH activity in GAN diet-induced […] mouse assessed as reduction in Plin2 mRNA expression level. The series is classed as functional, organism-based.

Calls of active or inactive are those of the source. No cut-off for these calls is given here.

In the case of `CCCC(=O)O[C@@H]1CC[C@]2(C)[C@H]3CC[C@@H]4[C@H]5[C@H](C(C)C)CC[C@]5(C(=O)NCC(=O)O)CC[C@@]4(C)[C@]3(C)CC[C@H]2C1(C)C`, the result in the series on Mus musculus [1], in the series filed under Mus musculus [2], in the series with Mus musculus [3], in the series filed under Mus musculus [4], in the series listed under Mus musculus [5] and in the series listed under Mus musculus [6] was Active. Also, the outcome (in the series with Mus musculus [7]; with Liver [8]; in the series filed under Mus musculus [9]; in the series listed under Mus musculus [10]; in [11]; in the series listed under Mus musculus [13]) was Active. Besides, the result (in [14]; in the series with Mus musculus [15]; in series [16]; in the series with Liver [17]; in the series on Liver [18]; in the series filed under Mus musculus [19]) was Active. Besides, the outcome in the series filed under Mus musculus [20] was Active. Further, in series [12], the Drug metabolism entry is recorded as “Metabolite_Detected”.
